Data taken from PMC9115719, “Spatial Expression Analysis of Odorant Binding Proteins in Both Sexes of the Aphid Parasitoid Aphidius gifuensis and Their Ligand Binding Properties” (Frontiers in Physiology, 2022).
“And” between values parts separate entries of the source, which are not always exact repeats. Equal entries are not always repeated. Where two headings read alike, the source gives them in different places.

What was measured:
[1] = target: T1, AgifOBP9 (Aphidius gifuensis, UniProt A0A3Q9EL79, L121S); assay: Fluorescence competitive binding assay (1-NPN displacement) with recombinant AgifOBP9; details: for Ki: Tris-HCl pH 7.4, Ki = [IC50]/(1+[1-NPN]/K1-NPN), means ± SD, three replicates
T1 sequence (A0A3Q9EL79 entry or part of it L121S): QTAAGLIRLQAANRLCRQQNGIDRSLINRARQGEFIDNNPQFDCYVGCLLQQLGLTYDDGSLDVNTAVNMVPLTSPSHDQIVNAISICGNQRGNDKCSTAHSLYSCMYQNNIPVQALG
Experimental: (§1) Fluorescence intensity was recorded in a right angle configuration on a Lengguang 970CRT spectrofluorimeter (Shanghai Jingmi, China) at room temperature using a 1 cm light path fluorimeter quartz cuvette. A slit width of 10 nm was selected for both excitation and emission. The measured fluorescence intensities were corrected for both blank signals due to protein emission and scattered excitation light. The spectral data were processed using the software 970CRT 2.0l. Fluorescence binding experiments were conducted in […] Tris-HCl buffer, pH 7.4, at room temperature. The binding affinity for N-phenyl-1-naphthylamine (1-NPN) was determined by adding aliquots of a 1 mM stock solution of 1-NPN dissolved in spectrophotometric grade methanol into a 2 μM protein sample. The fluorescence of 1-NPN was excited at 337 nm, and emission was recorded between 350 and 500 nm. Spectra were recorded with a high-speed scan. All ligands used in competitive experiments were dissolved in spectrophotometric grade methanol. In competition assays, aliquots of the competing ligands were added into a 2 μM protein solution in the presence of a given concentration of 1-NPN. To estimate the binding affinities of each AgifOBP for a variety of different ligands, we monitored the decrease in 1-NPN fluorescence due to the ability of different odorants to displace 1-NPN and determined the Ki value for each compound. To determine the dissociation constants, the intensity values corresponding to the maximum fluorescence emissions were plotted against the cumulative 1-NPN concentration. The amount of bound ligand was calculated from the fluorescence intensity values by assuming that the protein was 100% active, with a stoichiometry of 1:1 protein: ligand at saturation. The curves were linearized using Scatchard plots. The value of K1-NPN was estimated on a direct plot by nonlinear regression with an equation corresponding to a single binding site using Prism 7 (GraphPad Software, Inc., United States), and the IC50 was defined as the concentration of a competitor that caused a 50% reduction in fluorescence intensity. The dissociation constants of the inhibitors (Ki) were calculated according to the formula Ki = [IC50]/(1+[1-NPN]/K1-NPN), in which [1-NPN] represents the free 1-NPN concentration and K1-NPN represents the dissociation constant for AgifOBPs/1-NPN ([Ban et al., 2003]; [Zhong et al., 2012]; [Sun et al., 2016]; [Fan et al., 2017]; [Qin et al., 2020]; [Wang et al., 2021b]). All fluorescence competitive binding assays were performed in three independent replicates, and Ki dates are present as means ± SD.
(§2) FIGURE 5 Expression and binding properties of AgifOBP7 and AgifOBP9 with candidate ligands. (A) Expression and purification of AgifOBP7, (B) Expression and purification of AgifOBP9. Line M: molecular weight PR 1910 (11–180 KDa) Marker, 11, 17, 25, 35, 48, 63, 75, 100, 135, 180 KDa; IN: Induced pET-28a (+)/AgifOBP7/9; Super: pET-28a (+)/AgifOBP7/9 Supernatant; IB: pET-28a (+)/AgifOBP7/9 Inclusion body; Pur: Purified pET-28a (+)/AgifOBP7/9 without His-tag. (C,D) Binding curves of AgifOBP7 and AgifOBP9 with N-phenyl-1-naphthylamine (1-NPN) in 50 mM Tris-HCl buffer (pH 7.4). (E,F) Competitive binding curves of AgifOBP7 and AgifOBP9 to components of aphid alarm pheromones ((E)-beta-farnesene, (-)-α-pinene, (-)-β-pinene, (+)-limonene, (E)-beta-farnesene derivative (CAU-II-11); aphid sexual pheromone (4aSR 7SR 7aRS)-nepetalactone, the volatiles of wheat green leaf (cis-3-hexen-1-ol) and aphid induced plant main volatiles (methyl salicylate, 6-methyl-5-hepten-2-one). A mixture of the recombinant protein and N-phenyl-1-naphthylamine (1-NPN) in 50 mM Tris-HCl buffer (pH 7.4) at the concentration of 2 μM was titrated with 1 mM solutions of each competing ligand to a final concentration range of 2–16 μM. Fluorescence values are presented as percent of the values in the absence of competitor. Date are the means ± SD of three independent experiments.

[2] = target: T2, AgifOBP7 (Aphidius gifuensis, UniProt A0A3S9LWE5); assay: Fluorescence competitive binding assay (1-NPN displacement) with recombinant AgifOBP7; details: for binding to AgifOBP7 in words: fluorescence competitive binding assay
T2 sequence (A0A3S9LWE5 entry or part of it): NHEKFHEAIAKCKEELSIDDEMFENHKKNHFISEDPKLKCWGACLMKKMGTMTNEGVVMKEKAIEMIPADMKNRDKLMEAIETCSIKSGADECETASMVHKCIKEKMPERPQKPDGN
Experimental: as §1, §2

[3] = target: T1, AgifOBP9; assay: Binding of fluorescent probe 1-NPN to AgifOBP9; details: 2 μM protein, 50 mM Tris-HCl pH 7.4; read-out: dissociation constant of AgifOBP9/1-NPN complex
Experimental: (§3) Fluorescence intensity was recorded in a right angle configuration on a Lengguang 970CRT spectrofluorimeter (Shanghai Jingmi, China) at room temperature using a 1 cm light path fluorimeter quartz cuvette. A slit width of 10 nm was selected for both excitation and emission. The measured fluorescence intensities were corrected for both blank signals due to protein emission and scattered excitation light. The spectral data were processed using the software 970CRT 2.0l. Fluorescence binding experiments were conducted in […] Tris-HCl buffer, pH 7.4, at room temperature. […] The fluorescence of 1-NPN was excited at 337 nm, and emission was recorded between 350 and 500 nm. Spectra were recorded with a high-speed scan. […] To estimate the binding affinities of each AgifOBP for a variety of different ligands, we monitored the decrease in 1-NPN fluorescence due to the ability of different odorants to displace 1-NPN and determined the Ki value for each compound. To determine the dissociation constants, the intensity values corresponding to the maximum fluorescence emissions were plotted against the cumulative 1-NPN concentration. The amount of bound ligand was calculated from the fluorescence intensity values by assuming that the protein was 100% active, with a stoichiometry of 1:1 protein: ligand at saturation. […]

[4] = target: T2, AgifOBP7; assay: Binding of fluorescent probe 1-NPN to AgifOBP7; details: 2 μM protein, 50 mM Tris-HCl pH 7.4; read-out: dissociation constant of AgifOBP7/1-NPN complex
Experimental: as §3

[5] = displacement of 1-NPN, 2 μM protein, Tris-HCl pH 7.4, room temperature, read-out: OBP9 IC50
[6] = displacement of 1-NPN, 2 μM protein, read-out: OBP9 Ki
[7] = displacement of 1-NPN, 2 μM protein, Tris-HCl pH 7.4, room temperature, read-out: OBP7 IC50
[8] = displacement of 1-NPN, 2 μM protein, Tris-HCl pH 7.4, Ki = [IC50]/(1+[1-NPN]/K1-NPN), means ± SD, three replicates, read-out: OBP7 Ki
[9] = OBP9 Ki, displacement of 1-NPN, 2 μM protein

Row | SMILES | IC50 [1, 5] [µM] | Ki [1, 6] [µM] | IC50 [2, 7] [µM] | Ki [2, 8] [µM] | binding to AgifOBP7 in words [2] | IC50 [1] [µM] | Ki [1, 9] | IC50 [2] [µM] | Ki [2] [µM] | also measured
1 | C=C(C)C1CC=C(C)CC1 (single isomer, unassigned; (+)) [(+)-Limonene] | 12.8 ± 0.25 | 3.32 ± 0.06 | > 30 | > 30 | not much | – | – | – | – | Ki ([1]; displacement of 1-NPN, 2 μM protein, listed as (+)-limonene, read-out: OBP9 Ki): < 10 µM
2 | c1ccc(Nc2cccc3ccccc23)cc1 [1-NPN, N-phenyl-1-naphthylamine] | – | – | – | – | – | – | – | – | – | Kd [3]: 0.69 ± 0.24 µM; Kd [4]: 1.69 ± 0.27 µM
3 | CC(=O)CCC=C(C)C [6-Methyl-5-hepten-2-one] | – | – | – | – | not much | 22.3 ± 3.38 | < 10 µM and 5.76 µM | > 30 | > 30 | –
4 | CC1=COC(=O)[C@H]2[C@@H]1CC[C@@H]2C [(4aSR 7SR 7aRS)-Nepetalactone] | 9.03 ± 0.31 | 2.33 ± 0.08 | > 30 | 16.1 ± 3.49 | – | – | – | – | – | Ki ([1]; displacement of 1-NPN, 2 μM protein, listed as (4aSR 7SR 7aRS)-nepetalactone, read-out: OBP9 Ki): < 10 µM
5 | CC1=CCC2CC1C2(C)C (stereo not drawn) [(-)-α-Pinene] | 24.1 ± 3.42 | 6.22 ± 0.88 | > 30 | > 30 | not much | – | – | – | – | Ki ([1]; displacement of 1-NPN, 2 μM protein, listed as (-)-α-pinene, read-out: OBP9 Ki): < 10 µM
6 | C=C1CCC2CC1C2(C)C (stereo not drawn) [(-)-β-Pinene] | 11.9 ± 1.27 | 3.06 ± 0.33 | > 30 | > 30 | not much | – | – | – | – | Ki ([1]; displacement of 1-NPN, 2 μM protein, listed as (-)-β-pinene, read-out: OBP9 Ki): < 10 µM
7 | C=CC(=C)CC/C=C(\C)CCC=C(C)C [(E)-β-Farnesene] | 17.8 ± 1.69 | 4.6 ± 0.43 | > 30 | 20.3 ± 1.99 | – | – | – | – | – | Ki ([1]; displacement of 1-NPN, 2 μM protein, listed as EBF, read-out: OBP9 Ki): < 10 µM
8 | COc1cccc(C(=O)OC/C=C(\C)CCC=C(C)C)c1O [CAU-II-11, (E)-3,7-dimethylocta-2,6-dien-1-yl-2-hydroxy-3-methoxybenzoate] | – | – | – | – | – | 4.15 ± 0.33 | 1.07 ± 0.08 µM | 18.6 ± 1.73 | 8.5 ± 0.73 | –
9 | COC(=O)c1ccccc1O [Methyl salicylate] | – | – | – | – | not much | 13.3 ± 2.99 | < 10 µM and 3.43 µM | > 30 | > 30 | –
10 | CC/C=C\CCO [cis-3-Hexenol] | – | – | – | – | not much | 17 ± 0.33 | < 10 µM and 4.39 µM | > 30 | > 30 | –
